Here are results for 31 compounds from patent US8895585B2, “Nicotinamide derivative or salt thereof” (FUJIFILM Corporation, priority 2010, dated 2014).

The first experiment has as its system THP-1 cells. As to the kind of experiment: TNFα generation assay. It is filed as cell-based, human. The note with it: Homo sapiens, THP-1, 7 h, IFN-γ-differentiated THP-1 cells on human IgG-coated plate, cultured 7 hours; read-out: TNFα generation inhibitory activity (IC50). On the procedure: THP-1 cells (2×10^5 cells/ml), which were human monocytoid cells, were cultured in the presence of 10 ng/ml IFN-γ (Roche) for 2 days, so that the cells were induced to differentiate into macrophage-like cells. The differentiation-induced THP-1 cells were recovered, and the cells (1×10^6 cell/ml) were then allowed to react with a predetermined concentration of test compound at room temperature for 30 minutes. On the other hand, 100 μl of human IgG (10 μg/ml, SIGMA-ALDRICH) diluted with PBS was added to a 96-well plate, and it was then incubated at room temperature overnight. Thereafter, the resultant was washed with PBS twice to produce a human IgG-coated plate. Subsequently, a cell solution that contained a compound was inoculated on the human IgG-coated plate (5×10^4 cells/well), and it was then cultured for 7 hours. Thereafter, the cultured solution was recovered, and the amount of TNFα secreted into the culture solution was then measured by the ELISA method (Roche/R & D Systems) or the AlphaLISA method (PerkinElmer).
As to `COc1cc(Nc2nc(N[C@@H]3CCCC[C@@H]3N)c(F)cc2C(N)=O)cc(OC)c1` [Example 22-5, 6-((1R,2S)-2-aminocyclohexylamino)-2-(3,5-dimethoxyphenylamino)-5-fluoronicotinamide], the IC50 is at most 0.2 µM.
The same measure, in the same setting: to `Cc1cccc(Nc2nc(N[C@@H]3CCCC[C@@H]3N)c(F)cc2C(N)=O)c1` (relative stereo) [Example 2-3, 6-(cis-2-aminocyclohexylamino)-5-fluoro-2-((3-methyl-phenyl)amino)nicotinamide] belongs at most 0.2 µM.
In the case of `Cn1ncc2c(Nc3nc(N[C@@H]4CCCC[C@@H]4N)c(F)cc3C(N)=O)cccc21` (relative stereo) [Example 6-75, 6-(cis-2-aminocyclohexylamino)-5-fluoro-2-((1-methyl-1H-indazol-4-yl)amino)nicotinamide], the IC50 was at most 0.2 µM.
Same read-out and setting: next, `NC(=O)c1cc(F)c(N[C@@H]2CCCC[C@@H]2N)nc1Nc1cnc2c(ccn2CCN2CCCC2)c1` (relative stereo) [Example 4-22, 6-(cis-2-aminocyclohexylamino)-5-fluoro-2-((1-(2-(pyrrolidin-1-yl)ethyl)-1H-pyrrolo[2,3-b]pyridin-5-yl)amino)nicotinamide]: at most 0.2 µM; `CC[C@@H](Nc1nc(Nc2ccc3ncccc3c2)c(C(N)=O)cc1F)C(N)=O` [Example 12-31, 6-(((2R)-1-amino-1-oxobutan-2-yl)amino)-5-fluoro-2-(quinolin-6-ylamino)nicotinamide]: at most 0.2 µM.
Consider `NCCNc1nc(Nc2ccc3ncsc3c2)c(C(N)=O)cc1F` [Example 6-44, 6-(2-aminoethylamino)-2-((benzo[d]thiazol-6-yl)amino)-5-fluoro-nicotinamide], for which the IC50 is at most 0.2 µM.
Still for that read-out and setting: next, `COc1cc(Nc2nc(N[C@@H]3CCCC[C@@H]3N)c(F)cc2C(N)=O)cc(OC)c1OC` (relative stereo) [Example 2-7, 6-(cis-2-aminocyclohexylamino)-5-fluoro-2-((3,4,5-trimethoxy-phenyl)amino)nicotinamide]: at most 0.2 µM; `Cc1cnc2cc(Nc3nc(N[C@@H]4CCCC[C@@H]4N)c(F)cc3C(N)=O)ccc2n1` (relative stereo) [Example 6-76, 6-(cis-2-aminocyclohexylamino)-5-fluoro-2-((2-methylquinoxalin-6-yl)amino)nicotinamide]: at most 0.2 µM; `NC(=O)c1cc(F)c(N[C@@H]2CCCC[C@@H]2N)nc1Nc1ccc2nn(CCN3CCCC3)cc2c1` (relative stereo) [Example 6-83, 6-(cis-2-aminocyclohexylamino)-5-fluoro-2-((2-(2-(pyrrolidin-1-yl)ethyl)-2H-indazol-5-yl)amino)nicotinamide]: at most 0.2 µM.
Regarding `NC(=O)c1cc(F)c(N[C@@H]2CCCC[C@@H]2N)nc1Nc1ccc(N2CCOCC2)nc1` (relative stereo) [Example 2-20, 6-(cis-2-aminocyclohexylamino)-5-fluoro-2-((6-(morpholin-4-yl)pyridin-3-yl)amino)nicotinamide], the IC50 was at most 0.2 µM.
As to `NC(=O)c1cc(F)c(N[C@@H]2CCCC[C@@H]2N)nc1Nc1ccc2cccnc2c1` (relative stereo) [Example 6-72, 6-(cis-2-aminocyclohexylamino)-5-fluoro-2-(quinolin-7-ylamino)nicotinamide], the IC50 was at most 0.2 µM.
Same read-out and setting: to `NC(=O)c1cc(F)c(N[C@@H]2CCCC[C@@H]2N)nc1Nc1ccc(N2CCOCC2)cc1` (relative stereo) [Example 2-5, 6-(cis-2-aminocyclohexylamino)-5-fluoro-2-((4-(morpholin-4-yl)phenyl)amino)nicotinamide] belongs at most 0.2 µM; to `COC[C@H](N)CNc1nc(Nc2ccc3ncccc3c2)c(C(N)=O)cc1F` [Example 14-6, 6-(((2R)-2-amino-3-methoxypropyl)amino)-5-fluoro-2-(quinolin-6-ylamino)nicotinamide], at most 0.2 µM.
As for `NC(=O)c1cc(F)c(N[C@@H]2CCCC[C@@H]2N)nc1Nc1ccc2ncccc2c1` (relative stereo) [Example 8-6, 6-(cis-2-aminocyclohexylamino)-5-fluoro-2-(quinolin-6-ylamino)-nicotinamide], the IC50 was at most 0.2 µM.
Take `Cc1nc2cc(Nc3nc(N[C@@H]4CCCC[C@@H]4N)c(F)cc3C(N)=O)ccc2o1` (relative stereo) [Example 6-46, 6-(cis-2-aminocyclohexylamino)-5-fluoro-2-((2-methylbenzo[d]oxazol-5-yl)amino)nicotinamide]: the IC50 is at most 0.2 µM.
`NC(=O)Nc1cccc2cc(Nc3nc(N[C@@H]4CCCC[C@@H]4N)c(F)cc3C(N)=O)cnc12` (relative stereo) [Example 4-64, 2-((8-(aminocarbonyl)amino-quinolin-3-yl)amino)-6-(cis-2-amino-cyclohexylamino)-5-fluoronicotinamide]: the IC50 is at most 0.2 µM.
Same read-out and setting: to `NC(=O)c1cc(F)c(N[C@@H]2CCCC[C@@H]2N)nc1Nc1cnc2ncsc2c1` (relative stereo) [Example 4-26, 6-(cis-2-aminocyclohexylamino)-5-fluoro-2-(([1,3]thiazolo[4,5-b]pyridin-6-yl)amino)nicotinamide] belongs at most 0.2 µM; to `Cc1cncc(Nc2nc(N[C@@H]3CCCC[C@@H]3N)c(Br)cc2C(N)=O)c1` (relative stereo) [Example 35-7, 6-(cis-2-aminocyclohexylamino)-5-bromo-2-((5-methylpyridin-3-yl)amino)nicotinamide], at most 0.2 µM.
As to `CCN(CC)CCn1ccc2c(Nc3nc(N[C@@H]4CCCC[C@@H]4N)c(F)cc3C(N)=O)ccnc21` (relative stereo) [Example 4-28, 6-(cis-2-aminocyclohexylamino)-2-((1-(2-(diethylamino)ethyl)-1H-pyrrolo[2,3-b]pyridin-4-yl)amino)-5-fluoronicotinamide], the IC50 is at most 0.2 µM.
On the same count and under the same terms, next, `NC(=O)c1cc(F)c(N[C@@H]2CCCC[C@@H]2N)nc1Nc1ccnc2c1ccn2CCN1CCCC1` (relative stereo) [Example 4-23, 6-(cis-2-aminocyclohexylamino)-5-fluoro-2-((1-(2-(pyrrolidin-1-yl)ethyl)-1H-pyrrolo[2,3-b]pyridin-4-yl)amino)nicotinamide]: at most 0.2 µM.
Turning to `CC(C)C[C@H](N)CNc1nc(Nc2ccc3ncccc3c2)c(C(N)=O)cc1F` [Example 14-10, 6-(((2S)-2-amino-4-methylpentyl)amino)-5-fluoro-2-(quinolin-6-ylamino)nicotinamide], the IC50 was at most 0.2 µM.
For `Cc1nc2ccc(Nc3nc(N[C@@H]4CCCC[C@@H]4N)c(F)cc3C(N)=O)cc2o1` (relative stereo) [Example 6-43, 6-(cis-2-aminocyclohexylamino)-5-fluoro-2-((2-methylbenzo[d]oxazol-6-yl)amino)nicotinamide], the IC50 was at most 0.2 µM.
In the case of `NC(=O)c1cc(F)c(N[C@@H]2CCCC[C@@H]2N)nc1Nc1ccnc2c1ccn2CC1CC1` (relative stereo) [Example 4-40, 6-(cis-2-aminocyclohexylamino)-2-((1-(cyclopropylmethyl)-1H-pyrrolo[2,3-b]pyridin-4-yl)amino)-5-fluoronicotinamide], the IC50 was at most 0.2 µM.
Take `NC(=O)c1cc(F)c(N[C@@H]2CCCC[C@@H]2N)nc1Nc1ccc2c(cnn2CCN2CCCC2)c1` (relative stereo) [Example 6-82, 6-(cis-2-aminocyclohexylamino)-5-fluoro-2-((1-(2-(pyrrolidin-1-yl)ethyl)-1H-indazol-5-yl)amino)nicotinamide]: the IC50 is at most 0.2 µM.
For `Cn1ncc2ccc(Nc3nc(N[C@@H]4CCCC[C@@H]4N)c(F)cc3C(N)=O)cc21` (relative stereo) [Example 6-40, 6-(cis-2-aminocyclohexylamino)-5-fluoro-2-((1-methyl-1H-indazol-6-yl)amino)nicotinamide], the IC50 was at most 0.2 µM.
`NC(=O)c1cc(F)c(N[C@@H]2CCCC[C@@H]2N)nc1Nc1cccc(Cl)c1` (relative stereo) [Example 8-8, 6-(cis-2-aminocyclohexylamino)-2-((3-chlorophenyl)amino)-5-fluoro-nicotinamide]: the IC50 was at most 0.2 µM.
With `NC(=O)c1cc(F)c(N[C@@H]2CCCC[C@@H]2N)nc1Nc1ccc2[nH]ncc2c1` (relative stereo) [Example 6-87, 6-(cis-2-aminocyclohexylamino)-5-fluoro-2-((1H-indazol-5-yl)amino)nicotinamide], the IC50 was at most 0.2 µM.
`NC(=O)c1cc(F)c(NC[C@@H](N)c2ccccc2)nc1Nc1ccc2ncccc2c1` [Example 14-5, 6-(((2S)-2-amino-2-phenylethyl)amino)-5-fluoro-2-(quinolin-6-ylamino)nicotinamide]: the IC50 is at most 0.2 µM.

The same experiment, now with this note: Homo sapiens, THP-1, 7 h, read-out: TNFα generation inhibitory activity (IC50).
With `NCCNc1nc(Nc2cnc3ccccc3c2)c(C(N)=O)cc1F` [Example 8-11, 6-(2-aminoethylamino)-5-fluoro-2-(quinolin-3-ylamino)nicotinamide], the IC50 is at most 0.2 µM.

The same experiment, now with this note: Homo sapiens, THP-1, THP-1 cells; Table 22; read-out: IC50 in TNFα generation assay.
In the case of `Cc1nc2ccc(Nc3nc(N[C@@H]4CCCC[C@@H]4N)c(F)cc3C(N)=O)cc2o1` (relative stereo) [Example 006-043, 6-(cis-2-aminocyclohexylamino)-5-fluoro-2-((2-methylbenzo[d]oxazol-6-yl)amino)nicotinamide], the IC50 was in the range of 0.13 to 0.2 µM.
Take `CC(C)C[C@H](CN)Nc1nc(Nc2ccc3ncccc3c2)c(C(N)=O)cc1F` [Example 006-117, (R)-6-((1-amino-4-methylpentan-2-yl)amino)-5-fluoro-2-((quinolin-6-yl)amino)nicotinamide]: the IC50 is under 0.065 µM.
